Earlier results, collected in PMC6547379 (The European respiratory journal, 2018).

Test system: CF patients
Details: ref [34]

Cc1c(-c2ccnn2C)cc(C(=O)NCc2ccc(S(C)(=O)=O)cn2)c(=O)n1-c1cccc(C(F)(F)F)c1 [AZD9668]
effect on inflammation / lung function in CF patients: no effect on inflammation or lung function
